# Assay results taken from patent EP0536419B1, “TRICYCLIC TRIAZOLE DERIVATIVES, PRODUCTION AND USE THEREOF” (TORAY INDUSTRIES, INC., priority 1991, dated 1992).
# Where a name gives a salt, the structure may show the parent alone.
# Molecular target: rabbit platelets (Oryctolagus cuniculus, UniProt G1TEI7)
# Experiment: in vitro platelet agglutination inhibition test (PAF-induced)
# Type: cell-based
# Details: rabbit platelet-rich plasma, PAF final concentration 10 ng/ml, 37°C; read-out: PAF-Induced Platelet Aggregation IC50 (converted)
# Sequence of rabbit platelets (G1TEI7 1-342): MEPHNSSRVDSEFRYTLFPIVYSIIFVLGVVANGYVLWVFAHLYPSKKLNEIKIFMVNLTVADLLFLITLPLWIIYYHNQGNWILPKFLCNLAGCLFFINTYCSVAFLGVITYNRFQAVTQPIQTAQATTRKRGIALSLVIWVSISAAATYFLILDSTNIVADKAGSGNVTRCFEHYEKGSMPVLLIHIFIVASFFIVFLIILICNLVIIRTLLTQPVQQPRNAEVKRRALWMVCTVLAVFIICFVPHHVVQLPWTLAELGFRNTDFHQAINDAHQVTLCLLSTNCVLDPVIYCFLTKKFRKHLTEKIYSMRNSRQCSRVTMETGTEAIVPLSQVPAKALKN
row,IC50,Structure (SMILES)
1,1350 nM,"CCc1nnc2n1-c1ccccc1N(CCCN1CCC(=C(c3ccccc3)c3ccccc3)CC1)C2 [Compound 92, 1-ethyl-4,5-dihydro-5-[3-[4-(diphenylmethylene)piperidin-1-yl]propyl][1,2,4]triazolo[4,3-a] quinoxaline]"
2,4270 nM,"Cc1nnc2n1-c1ccc(F)cc1N(CCCN1CCC(c3c[nH]c4ccccc34)CC1)C2 [Compound 66, 7-fluoro-4,5-dihydro-1-methyl-5-[3-[4-(3-indolyl)piperidin-1-yl]propyl][1,2,4]triazolo[4,3-a]quinoxaline]"

# Molecular target: T1, PAF receptor (Oryctolagus cuniculus, UniProt G1TEI7)
# T1 construct: Cell membrane fraction of rabbit platelets was prepared; from tissue; host or cells: rabbit platelets (cell membrane fraction)
# Experiment: Binding test using [3H]-PAF (PAF receptor binding test)
# Set-up: species or system rabbit
# Details: rabbit platelet membrane fraction, [3H]-PAF 0.4 nM, 25°C, 60 minutes; read-out: Receptor Binding Inhibition IC50 (converted)
# Description: Binding Test Using [^3H]-PAF (PAF receptor binding test)
# Cell membrane fraction of rabbit platelets was prepared in accordance with the method by Hwang et al (Biochemistry; 22; 4756, (1983)). In 10 mM Tris buffer containing 0.25% bovine serum albumin, 50 mg of this membrane fraction was suspended and tritium-labelled PAF [^3H]-PAF; 0.4 nM) and a test compound were added thereto. After incubating the resulting mixture at 25°C for 60 minutes, the mixture was subjected to filtration through a filter paper made of glass fibers. The filter paper was washed with cold Tris buffer three times and then transferred to a vial. A scintillator was added thereto and the dose of radioactivity was measured with a liquid scintillation counter. The inhibition rate (binding ability) of the test compound was calculated according to the following equation and IC50 values were determined by interpolation. Inhibition Rate (%) = {1 - [((A - B))/((C - B))]} x 100 [formula] (wherein A represents amount bound in the presence of the compound, B represents amount bound by non-specific binding which is the dose of [^3H]-PAF bound radioactivity in the presence of 1 µM of PAF, and C represents total amount bound which is the dose of [^3H]-PAF bound radioactivity.
# As a control agent, WEB2086 (Japanese Laid-open Patent Application (Kokai) No. 65-176591) disclosed as a PAF-antagonist was used.
# T1 sequence (G1TEI7 1-342): as above
row,Structure (SMILES),IC50
1,"COc1ccc2[nH]cc(C3CCN(CCCN4Cc5nnc(C)n5-c5ccccc54)CC3)c2c1 [Compound 54, 4,5-dihydro-1-methyl-5-[3-[4-(5-methoxy-3-indolyl)piperidin-1-yl]propyl] [1,2,4]triazolo[4,3-a]quinoxaline]",1160 nM
2,"Cc1nnc2n(CCN3CCN(C(c4ccccc4)c4ccccc4)CC3)c3ccccc3n12 [Compound 191, 3-methyl-9-[3-[4-(diphenylmethyl)piperazin-1-yl]ethyl]-9H-[1,2,4]triazolo[4,3-a]benzimidazole fumaric acid salt]",7100 nM
3,"Cc1nnc2n1-c1ccccc1N(CCCN1CCN(C(c3ccccc3)c3ccc(Cl)cc3)CC1)C2 (stereo not shown) [Compound 69, 4,5-dihydro-1-methyl-5-[3-[4-[(4-chlorophenyl)phenylmethyl]piperazin-1-yl]propyl][1,2,4]triazolo[4,3-a]quinoxaline]",702 nM
4,"Cc1nnc2n1-c1ccccc1N(CCN1CCN(C(c3ccccc3)c3ccccc3)CC1)C2 [Compound 43, 4,5-dihydro-1-methyl-5-[3-[4-(diphenylmethyl)piperazin-1-yl]ethyl][1,2,4]triazolo[4,3-a]quinoxaline fumaric acid salt]",6460 nM
5,"Cc1nnc2n1-c1ccccc1N(CCCN1CCC(c3c[nH]c4ccc(Cl)cc34)CC1)C2 [Compound 55, 4,5-dihydro-1-methyl-5-[3-[4-(5-chloro-3-indolyl)piperidin-1-yl]propyl] [1,2,4]triazolo[4,3-a]quinoxaline]",803 nM
6,"Cc1nnc2n1-c1ccccc1N(CCCN1CCN(C(c3ccccc3)c3ccccc3)CC1)C2 [Compound 44, 4,5-dihydro-1-methyl-5-[3-[4-(diphenylmethyl)piperazin-1-yl]propyl][1,2,4]triazolo[4,3-a]quinoxaline]",1670 nM

# Now from value to molecule:
row,IC50,Structure (SMILES)
1,950 nM,"Cc1nnc2n1-c1ccccc1N(CCCN1CCC(c3c[nH]c4ccc(Br)cc34)CC1)C2 [Compound 56, 4,5-dihydro-1-methyl-5-[3-[4-(5-bromo-3-indolyl)piperidin-1-yl]propyl] [1,2,4]triazolo[4,3-a]quinoxaline]"
2,636 nM,"Cc1ccc2[nH]cc(C3CCN(CCCN4Cc5nnc(C)n5-c5ccccc54)CC3)c2c1 [Compound 58, 4,5-dihydro-1-methyl-5-[3-[4-(5-methyl-3-indolyl)piperidin-1-yl]propyl] [1,2,4]triazolo[4,3-a]quinoxaline]"
3,202 nM,"Cc1nnc2n1-c1ccccc1N(CCCN1CCC(OC(c3ccccc3)c3ccccc3)CC1)C2 [Compound 76, 4,5-dihydro-1-methyl-5-[3-[4-(diphenylmethoxy)piperidin-1-yl]propyl][1,2,4]triazolo[4,3-a] quinoxaline tartaric acid salt]"
4,357 nM,"Cc1nnc2n1-c1ccccc1N(CCCN1CCC(C(O)(c3ccccc3)c3ccccc3)CC1)C2 [Compound 74, 4,5-dihydro-1-methyl-5-[3-[4-(hydroxydiphenylmethyl)piperidin-1-yl]propyl][1,2,4]triazolo[4,3-a] quinoxaline tartaric acid salt]"
5,2700 nM,"Cc1nnc2n1-c1ccccc1N(CCCN1CCC(c3c[nH]c4ccc(F)cc34)CC1)C2 [Compound 57, 4,5-dihydro-1-methyl-5-[3-[4-(5-fluoro-3-indolyl)piperidin-1-yl]propyl] [1,2,4]triazolo[4,3-a]quinoxaline]"
